Like-named read-outs stand apart in the source and are kept apart here.
What was measured:
sensory panel [1] = settings: chicken soup with 1 g monosodium glutamate in 500 mL; compound at 2 g/L; 12 panelists
Procedure: Chicken soups were prepared by dissolving 6 g chicken base powder (detailed recipe shown in Table 1) and 1 g monosodium glutamate in 500 mL hot water.
The sensory evaluation was carried out by 12 panelists, previously screened for their sensory abilities.

sensory panel [2] = test: Taste threshold concentration in model broth (sensory panel, triangle test); type: in vivo, human; settings: versus β-alanyl-L-glycine
Procedure: The sensory tests were performed in a sensory panel room at 20-25° C. To avoid a retro-nasal aroma or taste impression, nose clips were used. The sensory panel consisted of 8 to 14 trained persons. The panel was trained to evaluate the taste of aqueous solutions (1 mL each) of the following standard taste compounds by using a triangle test: saccharose (50 mmol/L) and L-alanine (15 mmol/L), respectively, for sweet taste; lactic acid (20 mmol/L) for sour taste; NaCl (12 mmol/L) for salty taste; caffeine (1 mmol/L) and quinine hydrochloride (0.05 mmol/L), respectively, for bitter taste; sodium glutamate (8 mmol/L, pH 5.7) for umami taste; and tannin (0.05%) for astringency. The “white meaty” oral sensations was assessed in a model broth solution prepared from monosodium glutamate monohydrate (1.9 g/L), yeast extract (2.1 g/L), maltodextrin (6.375 g/L) and sodium chloride (2.9 g/L) in bottled water (pH 5.9).

sensory panel [3] = settings: tomato soup; compound at 2 g/L

Compound: O=C(O)CNC(=O)CCNCC(=O)[C@@H](O)[C@H](O)[C@H](O)CO
- sensory difference described by panel (sensory panel [1]): increased the spicy, savory and meaty flavours
- lowering of the taste threshold molar concentration by a factor (sensory panel [2]): about 4
- sensory difference described by panel (sensory panel [3]): increased the savory, fatty and spicy notes

— US10787481B2, “Sugar-dipeptide conjugates as flavor molecules” (NESTEC S.A., priority 2015, dated 2020)
